Measured values taken from ChEMBL document CHEMBL1201862, “PubChem BioAssay data set” (2004).
Values joined by “and” are separate entries in the source; they are usually repeats but may differ in a detail not shown here. Equal entries are not always repeated.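 Grown in 96-well plates, cells were treated for 48 hours with each compound at five concentrations. Insufficient inhibition: endpoint recorded as highest concentration tested. GI50: concentration for 50% inhibition of growth.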 Active and inactive are the calls of the source. No stated cut-off is given here; in the data, active = GI50 up to about 1.1 µM and inactive = higher.

How the values were obtained:
Assay in all cases: inhibition of tumour cell growth, NCI panel, 48 h
A498 = test system: A498
A549 = test system: A549
ACHN = test system: ACHN
CCRF-CEM = test system: CCRF-CEM
DLD-1 = test system: DLD-1
EKVX = test system: EKVX
HCC 2998 = test system: HCC 2998
HCT-116 = test system: HCT-116
HCT-15 = test system: HCT-15
HOP-92 = test system: HOP-92
HT-29 = test system: HT-29
IGROV-1 = test system: IGROV-1
KM-20L2 = test system: KM-20L2
KM12 = test system: KM12
LOX IMVI = test system: LOX IMVI
LXFL 529 = test system: LXFL 529
M14 = test system: M14
M19-MEL = test system: M19-MEL
Malme-3M = test system: Malme-3M
NCI-H226 = test system: NCI-H226
NCI-H23 = test system: NCI-H23
NCI-H460 = test system: NCI-H460
NCI-H522 = test system: NCI-H522
OVCAR-4 = test system: OVCAR-4
OVCAR-5 = test system: OVCAR-5
RPMI-8226 = test system: RPMI-8226
RXF 393 = test system: RXF 393
SF-539 = test system: SF-539
SK-MEL-28 = test system: SK-MEL-28
SK-MEL-2 = test system: SK-MEL-2
SK-MEL-5 = test system: SK-MEL-5
SNB-19 = test system: SNB-19
SNB-78 = test system: SNB-78
SR = test system: SR
SW-620 = test system: SW-620
TK-10 = test system: TK-10
U-251 = test system: U-251
UACC-257 = test system: UACC-257
UO-31 = test system: UO-31
XF498 = test system: XF498
CAKI-1 = test system: CAKI-1
COLO 205 = test system: COLO 205
DMS-114 = test system: DMS-114
DMS-273 = test system: DMS-273
HL-60 = test system: HL-60
HOP-62 = test system: HOP-62
K562 = test system: K562
MOLT-4 = test system: MOLT-4
OVCAR-3 = test system: OVCAR-3
OVCAR-8 = test system: OVCAR-8
SF-268 = test system: SF-268
SF-295 = test system: SF-295
SK-OV-3 = test system: SK-OV-3
SN12C = test system: SN12C
SNB-75 = test system: SNB-75
UACC-62 = test system: UACC-62

In the case of `Cc1ccc(SSCC(O)C(O)CSSc2ccc(C)cc2)cc1` (stereo unspecified), the GI50 (A498) is reported as 4.51 µM (inactive), the GI50 (A549) is reported as 10.6 µM (inactive) and 10.9 µM (inactive) and the GI50 (ACHN) is reported as 11.2 µM (inactive) and 15.7 µM (inactive). For the same molecule, the GI50 (CCRF-CEM) was 1.14 µM (inactive), the GI50 (DLD-1) was 15 µM (inactive) and 14.1 µM (inactive) and the GI50 (EKVX) was 14.1 µM (inactive) and 18.1 µM (inactive). For the same molecule, the GI50 (HCC 2998) was 15 µM (inactive) and 14.2 µM (inactive), the GI50 (HCT-116) was 12.1 µM (inactive) and 7.28 µM (inactive) and the GI50 (HCT-15) was 14.1 µM and 13.1 µM. The GI50 (HOP-92) was 17 µM (inactive) and 11.9 µM (inactive), the GI50 (HT-29) was 13.3 µM (inactive) and 18.5 µM (inactive) and the GI50 (IGROV-1) was 2.99 µM (inactive) and 2.14 µM (inactive). For the same molecule, the GI50 (KM-20L2) was 13.1 µM (inactive) and 11.1 µM (inactive), the GI50 (KM12) was 9.48 µM (inactive) and 11.1 µM (inactive) and the GI50 (LOX IMVI) was 1.3 µM (inactive) and 1.89 µM (inactive). For the same molecule, the GI50 (LXFL 529) was 10.6 µM (inactive) and 6.01 µM (inactive), the GI50 (M14) was 7.29 µM (inactive) and 5.58 µM (inactive) and the GI50 (M19-MEL) was 16.5 µM (inactive) and 11.6 µM (inactive). The GI50 (Malme-3M) was 19 µM (inactive) and 15.3 µM (inactive), the GI50 (NCI-H226) was 15.2 µM (inactive) and 15.1 µM (inactive) and the GI50 (NCI-H23) was 5.94 µM (inactive) and 11.3 µM (inactive). The GI50 (NCI-H460) was 17.5 µM (inactive) and 18.1 µM (inactive), the GI50 (NCI-H522) was 1.82 µM (inactive) and 1.76 µM (inactive) and the GI50 (OVCAR-4) was 13.4 µM (inactive) and 14.3 µM (inactive). The GI50 (OVCAR-5) was 16.6 µM (inactive) and 22.8 µM (inactive), the GI50 (RPMI-8226) was 3.66 µM (inactive) and 3.26 µM (inactive) and the GI50 (RXF 393) was 3.92 µM (inactive) and 4.15 µM (inactive). For the same molecule, the GI50 (SF-539) was 3.42 µM (inactive) and 3.02 µM (inactive), the GI50 (SK-MEL-28) was 13.9 µM (inactive) and 14.9 µM (inactive) and the GI50 (SK-MEL-2) was 8.18 µM (inactive). The GI50 (SK-MEL-5) was 7.31 µM (inactive) and 12.6 µM (inactive), the GI50 (SNB-19) was 15.1 µM (inactive) and 14.6 µM (inactive) and the GI50 (SNB-78) was 13.7 µM (inactive). For the same molecule, the GI50 (SR) was 3.55 µM (inactive) and 3.29 µM (inactive), the GI50 (SW-620) was 7.55 µM (inactive) and 14.2 µM (inactive) and the GI50 (TK-10) was 15.6 µM (inactive) and 13.2 µM (inactive). For the same molecule, the GI50 (U-251) was 2.03 µM (inactive) and 2.23 µM (inactive), the GI50 (UACC-257) was 15.6 µM (inactive) and 14.4 µM (inactive) and the GI50 (UO-31) was 4.08 µM (inactive) and 4.26 µM (inactive). For the same molecule, the GI50 (XF498) was 17.2 µM (inactive) and 13.7 µM (inactive).

With `COc1c(O)c(C=O)c2c(O)c(-c3c(C)cc4c(C(C)C)c(OC)c(O)c(C=O)c4c3O)c(C)cc2c1C(C)C` [6,6'-METHOXYGOSSYPOL] the GI50 (A498) was 11.4 µM (inactive), the GI50 (A549) was 3.52 µM (inactive) and the GI50 (ACHN) was 2.43 µM (inactive). For the same molecule, the GI50 (CAKI-1) was 6.08 µM (inactive), the GI50 (CCRF-CEM) was 5.16 µM (inactive) and the GI50 (COLO 205) was 1.89 µM (inactive). For the same molecule, the GI50 (DLD-1) was 4.38 µM (inactive), the GI50 (DMS-114) was 3.08 µM (inactive) and the GI50 (DMS-273) was 5.11 µM (inactive). The GI50 (EKVX) was 4.86 µM (inactive), the GI50 (HCC 2998) was 2.65 µM (inactive) and the GI50 (HCT-116) was 2.61 µM (inactive). For the same molecule, the GI50 (HCT-15) was 3.74 µM, the GI50 (HL-60) was 4.46 µM (inactive) and the GI50 (HOP-62) was 2.98 µM (inactive). For the same molecule, the GI50 (HOP-92) was 2.2 µM (inactive), the GI50 (HT-29) was 4.13 µM (inactive) and the GI50 (IGROV-1) was 5.47 µM (inactive). For the same molecule, the GI50 (K562) was 11.8 µM (inactive), the GI50 (KM-20L2) was 6.01 µM (inactive) and the GI50 (KM12) was 5.05 µM (inactive). The GI50 (LXFL 529) was 3.96 µM (inactive), the GI50 (M14) was 9.86 µM (inactive) and the GI50 (M19-MEL) was 3.65 µM (inactive). The GI50 (MOLT-4) was 7.53 µM (inactive), the GI50 (Malme-3M) was 5.75 µM (inactive) and the GI50 (NCI-H226) was 2.43 µM (inactive). The GI50 (NCI-H23) was 3.61 µM (inactive), the GI50 (NCI-H460) was 4.72 µM (inactive) and the GI50 (NCI-H522) was 2.62 µM (inactive). For the same molecule, the GI50 (OVCAR-3) was 3.37 µM (inactive), the GI50 (OVCAR-4) was 3.86 µM (inactive) and the GI50 (OVCAR-5) was 7.08 µM (inactive). For the same molecule, the GI50 (OVCAR-8) was 3.74 µM (inactive), the GI50 (RPMI-8226) was 4.32 µM (inactive) and the GI50 (RXF 393) was 2.52 µM (inactive). The GI50 (SF-268) was 5.71 µM (inactive), the GI50 (SF-295) was 4.19 µM (inactive) and the GI50 (SF-539) was 4.36 µM (inactive). For the same molecule, the GI50 (SK-MEL-28) was 6.61 µM (inactive), the GI50 (SK-MEL-2) was 4.45 µM (inactive) and the GI50 (SK-MEL-5) was 9.23 µM (inactive). The GI50 (SK-OV-3) was 4.19 µM (inactive), the GI50 (SN12C) was 2.74 µM (inactive) and the GI50 (SNB-19) was 3.88 µM (inactive). The GI50 (SNB-75) was 2.4 µM (inactive), the GI50 (SNB-78) was 25.3 µM (inactive) and the GI50 (SR) was 4.4 µM (inactive). For the same molecule, the GI50 (SW-620) was 5.33 µM (inactive), the GI50 (TK-10) was 6.71 µM (inactive) and the GI50 (U-251) was 3.2 µM (inactive). For the same molecule, the GI50 (UACC-257) was 10.9 µM (inactive), the GI50 (UACC-62) was 11.9 µM (inactive) and the GI50 (UO-31) was 3.3 µM (inactive).

With `O=C1C(Cl)N(c2ccc([N+](=O)[O-])cc2)C1c1c[nH]c2ccccc12` (stereo unspecified) the GI50 (A549) was > 100 µM (inactive), the GI50 (CCRF-CEM) was 9.25 µM (inactive) and the GI50 (COLO 205) was > 100 µM (inactive). For the same molecule, the GI50 (DLD-1) was 38.1 µM (inactive), the GI50 (DMS-114) was 38 µM (inactive) and the GI50 (EKVX) was > 100 µM (inactive). For the same molecule, the GI50 (HCT-116) was 55.5 µM (inactive), the GI50 (HL-60) was 31 µM (inactive) and the GI50 (HOP-62) was > 100 µM (inactive). The GI50 (HOP-92) was 83 µM (inactive), the GI50 (HT-29) was 48.1 µM (inactive) and the GI50 (IGROV-1) was 77.6 µM (inactive). The GI50 (K562) was 55 µM (inactive), the GI50 (KM-20L2) was 41.2 µM (inactive) and the GI50 (KM12) was 66.2 µM (inactive). The GI50 (LXFL 529) was 36.2 µM (inactive), the GI50 (M14) was 64.7 µM (inactive) and the GI50 (M19-MEL) was > 100 µM (inactive). For the same molecule, the GI50 (MOLT-4) was 28.6 µM (inactive), the GI50 (Malme-3M) was 42.1 µM (inactive) and the GI50 (NCI-H23) was 86.9 µM (inactive). The GI50 (NCI-H460) was 41.7 µM (inactive), the GI50 (NCI-H522) was 56.8 µM (inactive) and the GI50 (OVCAR-3) was 47.8 µM (inactive). For the same molecule, the GI50 (OVCAR-4) was 53 µM (inactive), the GI50 (OVCAR-5) was > 100 µM (inactive) and the GI50 (OVCAR-8) was > 100 µM (inactive). The GI50 (RPMI-8226) was 30.8 µM (inactive), the GI50 (RXF 393) was > 100 µM (inactive) and the GI50 (SF-268) was > 100 µM (inactive). For the same molecule, the GI50 (SF-295) was > 100 µM (inactive), the GI50 (SF-539) was 33 µM (inactive) and the GI50 (SK-MEL-28) was > 100 µM (inactive). For the same molecule, the GI50 (SK-MEL-2) was > 100 µM (inactive), the GI50 (SK-MEL-5) was > 100 µM (inactive) and the GI50 (SK-OV-3) was 56.6 µM (inactive). The GI50 (SN12C) was > 100 µM (inactive), the GI50 (SNB-19) was > 100 µM (inactive) and the GI50 (SNB-75) was > 100 µM (inactive). For the same molecule, the GI50 (SR) was 19.5 µM (inactive), the GI50 (SW-620) was > 100 µM (inactive) and the GI50 (TK-10) was > 100 µM (inactive). For the same molecule, the GI50 (U-251) was 62.5 µM (inactive), the GI50 (UACC-257) was 64.1 µM (inactive) and the GI50 (UACC-62) was 51.3 µM (inactive). The GI50 (UO-31) was 38.3 µM (inactive) and the GI50 (XF498) was > 100 µM (inactive).
